Key:
Format in all cases: biochemical
[1] = target: T1, human liver α-fucosidase (Homo sapiens, UniProt P04066); assay: Inhibition of human liver α-fucosidase
T1 construct: from tissue; host or cells: human liver
T1 sequence (P04066 32-466): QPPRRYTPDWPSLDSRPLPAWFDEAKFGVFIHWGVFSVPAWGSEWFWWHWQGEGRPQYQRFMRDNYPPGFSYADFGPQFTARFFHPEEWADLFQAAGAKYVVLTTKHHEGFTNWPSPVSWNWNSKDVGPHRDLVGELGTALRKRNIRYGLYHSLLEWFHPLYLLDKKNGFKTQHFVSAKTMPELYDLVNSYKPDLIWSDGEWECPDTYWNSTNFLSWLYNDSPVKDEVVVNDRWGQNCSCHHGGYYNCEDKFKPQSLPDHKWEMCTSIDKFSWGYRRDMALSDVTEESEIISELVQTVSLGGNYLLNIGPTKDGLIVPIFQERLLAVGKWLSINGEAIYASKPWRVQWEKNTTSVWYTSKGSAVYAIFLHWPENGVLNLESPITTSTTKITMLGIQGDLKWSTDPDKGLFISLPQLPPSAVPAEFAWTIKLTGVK
Experimental: % Inhibition of human liver α-fucosidase and α-mannosidase
catalysed hydrolysis of 4-umbelliferyl pyrranosides at
1 mM concentration of inhibitor

[2] = tested on: human α-mannosidases; assay: Inhibition of human α-mannosidases (overall statement, glycosidase panel)
Description: (§1) The relative potencies of these compounds as fucosidase inhibitors may be understood by considering them as analogues of α-L-fucose; all three compounds have the correct chirality of the secondary hydroxyl groups - the minimum requirement for inhibition of α-fucosidase. […] All the compounds are weaker inhibitors of α-fucosidase than is deoxyfuconojirimycin, since they all lack a lipophilic methyl substituent with correct configuration.

[3] = tested on: β-mannosidase; assay: Inhibition of human liver β-mannosidase (glycosidase panel)
Description: as §1

| Structure (SMILES) | inhibition of α-fucosidase (in words) [1] | inhibition of α-mannosidases (in words) [2] | inhibition of β-mannosidase (in words) [3] |
| --- | --- | --- | --- |
| OC[C@@H]1N[C@H](CO)[C@@H](O)[C@@H](O)[C@@H]1O [6-epi-HMJ, 2,6-dideoxy-2,6-imino-L-glycero-D-talo-heptitol] | powerful inhibitors of α-fucosidase | did not inhibit any α-mannosidase | – |
| OC[C@H]1NC[C@@H](O)[C@@H](O)[C@@H]1O [DMJ, reference compound] | powerful inhibitors of α-fucosidase | very similar | Neither compound inhibited β-mannosidase |
| OC[C@H]1N[C@H](CO)[C@@H](O)C(O)[C@@H]1O (stereo partly drawn) [α-HMJ, 2,6-Dideoxy-2,6-imino-D-glycero-D-talo-heptitol] | only a weak inhibitor | very similar | Neither compound inhibited β-mannosidase |

Source: patent US5021562A, “Method for azide displacement of α-triflates of 1,5-lactones” (Monsanto Company, priority 1990, dated 1991)
